Among the test systems are UO-31; SN12C; SF-295; UACC-257; NCI-H460; T47D; HOP-92; HCT-116; MDA-MB-231; Hs-578T; NCI-H23; Malme-3M; CCRF-CEM; HCT-15; OVCAR-4; MDA-MB-435; IGROV-1; COLO 205; NCI-H522.
Assay in all cases: NCI-60 cell line screen, 48 h

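Growth conditions: 96-well plates. Treatment: test compound, 48 hours, 5 concentrations. Analysis: linear interpolation between bracketing concentrations; unreached endpoints set to highest concentration. Abbreviation: GI50, concentration required for 50% inhibition of growth.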 Active and inactive are the calls of the source. Cut-off read from the data, not from the text of the source: active = GI50 up to about 1.1 µM and inactive = higher.

For `CC12CCC(CC(=O)/C1=C(/Br)I)C2(C)C` (stereo not given), the GI50 with UO-31 was 18.2 µM (inactive); in the test with SN12C, 15.8 µM (inactive); with SF-295 it was 0.31 µM (active); in the test with UACC-257 it was 16.2 µM (inactive); with NCI-H460 it was > 100 µM (inactive); in the test with T47D, 21.7 µM (inactive). Besides, the GI50 is 17.3 µM (inactive) in the test on HOP-92; 12.4 µM (inactive) in the test on HCT-116; 5.57 µM (inactive) in the test on MDA-MB-231; 18.7 µM (inactive) in the test with Hs-578T; 13.5 µM (inactive) in the test on NCI-H23; 12.7 µM (inactive) with Malme-3M. The GI50 in the test on CCRF-CEM is 14.3 µM (inactive); with HCT-15, 10.9 µM; in the test on OVCAR-4, 15.1 µM (inactive); in the test on MDA-MB-435 it was 13.7 µM (inactive); with IGROV-1 it was 16.9 µM (inactive); in the test with COLO 205 it was 17.2 µM (inactive).
Consider `CC(OC(=O)C(CC(=O)OC(C)(C)C)NC(=O)OC(C)(C)C)C(=O)OCc1ccccc1` (stereo not given), for which the GI50 in the test with UO-31, in the test on SN12C, with SF-295, with UACC-257, in the test on NCI-H522 and in the test on NCI-H460 was > 100 µM (inactive) each time. Also, the GI50 with T47D, in the test on HCT-116, in the test on MDA-MB-231, in the test on Hs-578T, with NCI-H23 and in the test on Malme-3M was > 100 µM (inactive) each time. Moreover, the GI50 with CCRF-CEM is > 100 µM (inactive); in the test with HCT-15 it was above 100 µM; in the test on OVCAR-4 it was > 100 µM (inactive); with MDA-MB-435, > 100 µM (inactive); in the test with IGROV-1 it was > 100 µM (inactive); in the test on COLO 205 it was > 100 µM (inactive).
For `O=P1(C(O)c2ccccc2)N(Cc2ccccc2)[C@@H]2CCCC[C@H]2N1Cc1ccccc1` (stereo not given in full), the GI50 in the test on UO-31 is 33 µM (inactive); in the test on SN12C, 20.9 µM (inactive); in the test with SF-295, 23.6 µM (inactive); with UACC-257, 21.4 µM (inactive); in the test on NCI-H522, 20.7 µM (inactive); in the test with NCI-H460 it was 30.2 µM (inactive). Also, the GI50 was 21.9 µM (inactive) in the test on T47D; 27.4 µM (inactive) in the test with HCT-116; 21.3 µM (inactive) in the test on MDA-MB-231; 20 µM (inactive) in the test on Hs-578T; 47.9 µM (inactive) in the test on NCI-H23; 30.7 µM (inactive) with Malme-3M. Moreover, the GI50 in the test with CCRF-CEM was 34.8 µM (inactive); in the test with HCT-15, 34.5 µM; in the test on OVCAR-4 it was 12.3 µM (inactive); in the test with MDA-MB-435, 23.2 µM (inactive); in the test on IGROV-1 it was 28.6 µM (inactive); in the test on COLO 205 it was 14.8 µM (inactive).
In the case of `CCCC(=O)NC(NC1CCCCC1)(C(=O)OCC)C(F)(F)F` (stereo not given), the GI50 with UO-31, in the test with SN12C, in the test with SF-295, in the test on UACC-257, in the test with NCI-H522 and with NCI-H460 was > 100 µM (inactive) throughout. Moreover, the GI50 in the test on T47D, in the test with HOP-92, in the test on HCT-116, in the test on Hs-578T, in the test with NCI-H23 and with Malme-3M was > 100 µM (inactive) throughout. Moreover, the GI50 in the test with CCRF-CEM is > 100 µM (inactive); in the test on HCT-15 it was above 100 µM; in the test on OVCAR-4, > 100 µM (inactive); in the test on MDA-MB-435 it was > 100 µM (inactive); in the test with IGROV-1, > 100 µM (inactive).
Regarding `N#CC(c1ccccc1)N(CCCCCCN(C(=O)c1ccccc1)C(C#N)c1ccccc1)C(=O)c1ccccc1` (stereo not given), the GI50 in the test with UO-31 was 18 µM (inactive); with SN12C, 44.9 µM (inactive); in the test on SF-295, 27.9 µM (inactive); in the test on UACC-257 it was 22.8 µM (inactive); in the test on NCI-H460, 27.6 µM (inactive); with T47D it was 28.5 µM (inactive). The GI50 in the test with HOP-92 is 16.5 µM (inactive); in the test with HCT-116, 25.1 µM (inactive); in the test on MDA-MB-231, 47.6 µM (inactive); in the test on Hs-578T, 26.1 µM (inactive); in the test with NCI-H23 it was 26.2 µM (inactive); with Malme-3M, 35.8 µM (inactive). Moreover, the GI50 in the test on CCRF-CEM is 49.8 µM (inactive); in the test with HCT-15, 31.3 µM; in the test with OVCAR-4, 35 µM (inactive); in the test on MDA-MB-435, 32.8 µM (inactive); with IGROV-1, 52.6 µM (inactive); in the test with COLO 205, 18.1 µM (inactive).
On to `CC(=O)OC1COC(Nc2nc(NCc3ccccc3)n(C)c(=O)c2N=O)C(OC(C)=O)C1OC(C)=O` (stereo not given), for which the GI50 in the test with SN12C, in the test with SF-295, in the test with UACC-257, in the test on NCI-H522, in the test with NCI-H460 and in the test on T47D was > 10 µM (inactive) throughout. The GI50 with HCT-116, in the test on MDA-MB-231, in the test on Hs-578T, in the test on NCI-H23, in the test with Malme-3M and with CCRF-CEM was > 10 µM (inactive) throughout. Also, the GI50 with HCT-15 was above 10 µM; with OVCAR-4, > 10 µM (inactive); in the test on MDA-MB-435, > 10 µM (inactive); in the test with IGROV-1, > 10 µM (inactive); in the test on COLO 205, > 10 µM (inactive).
On to `CN(C)CCCNC1=C(Cl)C(=O)c2c(O)ccc(O)c2C1=O`, for which the GI50 in the test on UO-31 was 6.04 µM (inactive); in the test on SN12C, 1.81 µM (inactive); in the test with SF-295 it was 1.73 µM (inactive); in the test on UACC-257 it was 1.95 µM (inactive); in the test on NCI-H460, 2.13 µM (inactive); in the test with T47D, 2.09 µM (inactive). The GI50 in the test on HOP-92 was 8.2 µM (inactive); in the test on HCT-116, 2.26 µM (inactive); in the test with MDA-MB-231 it was 2.9 µM (inactive); in the test on Hs-578T it was 1.28 µM (inactive); with NCI-H23, 1.65 µM (inactive); in the test on Malme-3M, 1.84 µM (inactive). The GI50 with CCRF-CEM is 2.47 µM (inactive); with HCT-15 it was 1.8 µM; in the test on OVCAR-4 it was 1.49 µM (inactive); with MDA-MB-435, 1.6 µM (inactive); with IGROV-1, 1.77 µM (inactive); in the test with COLO 205 it was 1.49 µM (inactive).
Regarding `CCC(=O)Nc1ccc(N2C(=O)/C(=C/c3ccc(O)c(OC)c3)N=C2c2ccccc2)cc1`, the GI50 is 25.5 µM (inactive) in the test on UO-31; 54.5 µM (inactive) in the test on SN12C; 19.9 µM (inactive) in the test with SF-295; 26.7 µM (inactive) in the test on UACC-257; 37.6 µM (inactive) in the test on NCI-H522; 23.9 µM (inactive) in the test with NCI-H460. Further, the GI50 in the test with T47D was 24 µM (inactive); in the test on HOP-92 it was 46.5 µM (inactive); in the test with HCT-116, 34.4 µM (inactive); in the test on Hs-578T it was 61.1 µM (inactive); in the test on NCI-H23, 43.8 µM (inactive); with Malme-3M, 29.8 µM (inactive). Also, the GI50 in the test with CCRF-CEM is 22.1 µM (inactive); in the test on HCT-15, 21.3 µM; in the test on OVCAR-4, 9.91 µM (inactive); in the test on MDA-MB-435 it was 29.5 µM (inactive); with IGROV-1, 31.1 µM (inactive).
As to `C/C(=N/NC(=O)c1ccccc1Nc1ccccc1C(=O)N/N=C(\C)c1ccc(C)cc1)c1ccc(C)cc1`, the GI50 with UO-31 is > 100 µM (inactive); with SN12C, > 100 µM (inactive); with SF-295 it was 22.9 µM (inactive); with UACC-257 it was > 100 µM (inactive); in the test on NCI-H460 it was 15.5 µM (inactive); in the test with T47D, > 100 µM (inactive). The GI50 was > 100 µM (inactive) with HOP-92; 53.3 µM (inactive) in the test with HCT-116; 79.1 µM (inactive) with MDA-MB-231; > 100 µM (inactive) in the test on Hs-578T; > 100 µM (inactive) with NCI-H23; 32.5 µM (inactive) in the test on Malme-3M. Also, the GI50 was 25.2 µM (inactive) with CCRF-CEM; 55 µM in the test with HCT-15; 32.1 µM (inactive) in the test with OVCAR-4; > 100 µM (inactive) in the test on MDA-MB-435; > 100 µM (inactive) in the test on IGROV-1; 83.6 µM (inactive) in the test on COLO 205.
For the compound `OC1(c2ccc(Cl)cc2)C(N2CCCC2)c2ccccc2C2=NCCN21` (stereo not given), the GI50 in the test on UO-31 is 33 µM (inactive); with SN12C, 30.7 µM (inactive); with SF-295, 13.6 µM (inactive); in the test on UACC-257, 20.1 µM (inactive); in the test with NCI-H460, 24.2 µM (inactive); in the test with T47D it was 17.7 µM (inactive). In addition, the GI50 is 12.6 µM (inactive) in the test with HOP-92; 10.9 µM (inactive) in the test on HCT-116; 24.3 µM (inactive) in the test with MDA-MB-231; 29.9 µM (inactive) with Hs-578T; 24.3 µM (inactive) with NCI-H23; 18.5 µM (inactive) in the test with Malme-3M. Besides, the GI50 in the test with CCRF-CEM was 17.6 µM (inactive); in the test with HCT-15, 21.4 µM; in the test with OVCAR-4, 20 µM (inactive); in the test on MDA-MB-435 it was 25.6 µM (inactive); in the test with IGROV-1 it was 16.1 µM (inactive); in the test with COLO 205 it was 11.5 µM (inactive).
With `NC(=S)N1N=C(c2ccc3c(c2)CCC3)CC1c1ccccc1` (stereo not given), the GI50 is 29.9 µM (inactive) in the test with UO-31; 24.7 µM (inactive) in the test on SN12C; 15.7 µM (inactive) in the test with SF-295; 21.4 µM (inactive) with UACC-257; 6.27 µM (inactive) in the test on NCI-H522; 22.2 µM (inactive) with NCI-H460. Further, the GI50 is 1.64 µM (inactive) in the test on T47D; 23.4 µM (inactive) in the test with HOP-92; 22 µM (inactive) in the test with HCT-116; 6.12 µM (inactive) with Hs-578T; 25.1 µM (inactive) with NCI-H23; 22.6 µM (inactive) in the test with Malme-3M. For the same compound, the GI50 was 23.1 µM (inactive) in the test on CCRF-CEM; 13.8 µM in the test on HCT-15; 7.18 µM (inactive) in the test with OVCAR-4; 20.2 µM (inactive) in the test with MDA-MB-435; 15 µM (inactive) in the test with IGROV-1; 18.3 µM (inactive) in the test on COLO 205.

The values are drawn from ChEMBL document CHEMBL1201862, “PubChem BioAssay data set” (2004).
